Data published in patent US10766888B1, “HMOX1 inducers” (Mitobridge Inc., priority 2019, dated 2020).

Target: hERG channel (Homo sapiens, UniProt Q12809)
Experiment: hERG manual patch clamp assay
Type: cell-based
Conditions: HEK 293 cells stably expressing hERG channel, pH 7.35, 10 μM compound
Outline: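 Whole-cell manual patch clamp on doxycycline-induced HEK293 cells stably expressing hERG. Tail current measured at −50 mV after a 4.8 s step to +30 mV from −90 mV holding; test compounds at 10 μM, 0.1% DMSO, vs vehicle baseline. Percent inhibition from peak tail current, […].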

Sequence of hERG channel (Q12809 whole entry): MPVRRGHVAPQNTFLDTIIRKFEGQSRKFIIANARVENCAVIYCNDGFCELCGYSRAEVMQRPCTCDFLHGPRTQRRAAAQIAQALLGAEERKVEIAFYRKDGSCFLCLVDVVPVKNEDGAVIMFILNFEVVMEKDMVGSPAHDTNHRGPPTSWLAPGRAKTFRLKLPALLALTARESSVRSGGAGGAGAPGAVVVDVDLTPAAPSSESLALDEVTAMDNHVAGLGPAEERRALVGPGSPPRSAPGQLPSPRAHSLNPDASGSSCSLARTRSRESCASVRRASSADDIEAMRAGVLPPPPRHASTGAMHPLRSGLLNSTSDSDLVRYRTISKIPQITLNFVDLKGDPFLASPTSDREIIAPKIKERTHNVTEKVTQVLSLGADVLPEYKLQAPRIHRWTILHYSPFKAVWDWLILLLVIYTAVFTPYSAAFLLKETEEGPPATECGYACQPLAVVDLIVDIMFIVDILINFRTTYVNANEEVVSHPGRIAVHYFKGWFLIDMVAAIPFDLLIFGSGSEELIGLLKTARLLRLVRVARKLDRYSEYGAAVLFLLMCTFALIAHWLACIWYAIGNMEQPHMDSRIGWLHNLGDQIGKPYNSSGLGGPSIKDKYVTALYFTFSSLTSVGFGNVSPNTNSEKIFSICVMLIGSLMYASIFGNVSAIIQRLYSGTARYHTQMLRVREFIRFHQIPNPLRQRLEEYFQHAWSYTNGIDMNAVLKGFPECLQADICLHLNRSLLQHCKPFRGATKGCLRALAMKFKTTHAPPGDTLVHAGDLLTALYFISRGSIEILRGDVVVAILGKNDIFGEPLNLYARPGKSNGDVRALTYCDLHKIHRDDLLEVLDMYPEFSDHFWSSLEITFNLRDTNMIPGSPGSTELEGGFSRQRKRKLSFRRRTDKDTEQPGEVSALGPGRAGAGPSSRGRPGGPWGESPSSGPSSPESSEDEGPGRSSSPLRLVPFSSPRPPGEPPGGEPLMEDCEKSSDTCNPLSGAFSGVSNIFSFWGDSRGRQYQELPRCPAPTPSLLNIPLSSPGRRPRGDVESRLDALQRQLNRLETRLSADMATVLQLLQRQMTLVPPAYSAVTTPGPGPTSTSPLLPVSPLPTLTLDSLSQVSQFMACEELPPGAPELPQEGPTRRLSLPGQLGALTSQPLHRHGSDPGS

Row | SMILES | inhibition at 10 µM [%]
1 | Cn1c(Nc2nc3ccccc3o2)nc2cc(C(=O)NCCOCCO)ccc21 [Example 17, 2-(benzo[d]oxazol-2-ylamino)-N-(2-(2-hydroxyethoxy)ethyl)-1-methyl-1H-benzo[d]imidazole-5-carboxamide] | 16
2 | COCCNC(=O)c1ccc2c(c1)nc(Nc1nc3ccc(OCCOC)cc3o1)n2C [Example 56, 2-((6-(2-methoxyethoxy)benzo[d]oxazol-2-yl)amino)-N-(2-methoxyethyl)-1-methyl-1H-benzo[d]imidazole-5-carboxamide] | 35
